Experimental data: patent publication US20250346602A1, “LACTAM SUBSTITUTED IMIDAZOPYRIDAZINE IL-17A MODULATORS AND USES THEREOF” (DICE ALPHA, INC., priority 2022, published 2025)

The compounds below were run against T1, IL-17A/A (Homo sapiens, UniProt Q16552) (assay: IL-17A/A HEK-Blue cell assay). Conditions: HEK-Blue IL-17A reporter cell line (HEK 293), IL-17A/A stimulation, 20 hours incubation, SEAP read at A630.
T1 construct: purchased Genscript Z03228
T1 sequence (Q16552 24-155): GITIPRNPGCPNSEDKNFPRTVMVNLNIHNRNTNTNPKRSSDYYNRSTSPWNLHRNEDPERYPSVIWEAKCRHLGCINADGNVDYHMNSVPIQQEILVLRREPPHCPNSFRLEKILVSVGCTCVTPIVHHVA
Format: cell-based
Summary of the method: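 HEK293 reporter cells expressing IL-17RA, IL-17RC and Act1 were given titrated compound (top final 10, 1 or 0.3 uM; 0.1% DMSO) right before IL-17A/A and incubated 20 hours. NFκB-driven SEAP in the media was read at A630 with Quanti-Blue, and IC50 came from a 4-parameter nonlinear fit.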

Q: For `CCn1nccc1C(=O)N[C@H](c1cn2nc(CC3C[C@@H](C(F)(F)F)CNC3=O)ccc2n1)C(C1CC1)C1CC1` (stereo partly drawn) [Compound 96, N-((1S)-2,2-dicyclopropyl-1-(6-(((5R)-2-oxo-5-(trifluoromethyl)piperidin-3-yl)methyl)imidazo[1,2-b]pyridazin-2-yl)ethyl)-1-ethyl-1H-pyrazole-5-carboxamide], which IC50 is on record?
A: 100 to 1000 nM

Q: For `CCn1nccc1C(=O)N[C@H](c1cn2nc(C[C@@H]3CCCNC3=O)ccc2n1)[C@H]1CC[C@H](C)CC1` [Compound 39, 1-ethyl-N—((S)-((1r,4S)-4-methylcyclohexyl)(6-(((S)-2-oxopiperidin-3-yl)methyl)imidazo[1,2-b]pyridazin-2-yl)methyl)-1H-pyrazole-5-carboxamide], which IC50 is on record?
A: 100 to 1000 nM

Q: Which IC50 does the source give for `CCn1nccc1C(=O)N[C@H](c1cn2nc(CC3C[C@@H](C(F)(F)F)CNC3=O)ccc2n1)[C@@H]1CCCC(F)(F)C1` (stereo partly drawn) [Compound 194, N-((1S)—((R)-3,3-difluorocyclohexyl)(6-(((5R)-2-oxo-5-(trifluoromethyl)piperidin-3-yl)methyl)imidazo[1,2-b]pyridazin-2-yl)methyl)-1-ethyl-1H-pyrazole-5-carboxamide] here?
A: > 1000 nM

Q: Which IC50 does the source give for `CCn1nccc1C(=O)N[C@H](c1cn2nc(CC3C[C@@H](C(F)(F)F)CNC3=O)c(Cl)cc2n1)C1CCC(F)(F)CC1` (single isomer, unassigned) [Compound 80] here?
A: 100 to 1000 nM

Q: Which IC50 does the source give for `CCn1nccc1C(=O)N[C@H](c1cn2nc(C(COC)C3C[C@@H](C(F)(F)F)CNC3=O)ccc2n1)C(C1CC1)C1CC1` (single isomer, unassigned) [Compound 62] here?
A: 100 to 1000 nM

Q: How did the IC50 turn out when `CC(C)c1nocc1C(=O)N[C@H](c1cn2nc(CC3C[C@@H](C(F)(F)F)CNC3=O)ccc2n1)C1CCC(F)(F)CC1` (stereo partly drawn) [Compound 102, N-((1S)-(4,4-difluorocyclohexyl)(6-(((5R)-2-oxo-5-(trifluoromethyl)piperidin-3-yl)methyl)imidazo[1,2-b]pyridazin-2-yl)methyl)-3-isopropylisoxazole-4-carboxamide] was run?
A: < 100 nM

Q: How did the IC50 turn out when `CCn1nccc1C(=O)N[C@H](c1cn2nc(CC3C[C@H](C(F)(F)F)CNC3=O)c(C)cc2n1)C1CCC(F)(F)CC1` (single isomer, unassigned) [Compound 92] was run?
A: < 100 nM

Q: `CCn1nccc1C(=O)N[C@H](c1cn2nc(CC3CC(F)(F)CNC3=O)c(N(C)C)cc2n1)C1CCC(F)(F)CC1` (single isomer, unassigned) [Compound 87] was tested. Which IC50 did it give?
A: < 100 nM

Q: With `CCn1nccc1C(=O)N[C@H](c1cn2nc(CC3CCNC3=O)ccc2n1)C1CCC(F)(F)CC1` (single isomer, unassigned) [Compound 1] as the compound, how does the IC50 read?
A: > 1000 nM

Q: How did the IC50 turn out when `CCn1nccc1C(=O)NC(c1cn2nc(CC3C[C@@H](C(F)(F)F)CNC3=O)ccc2n1)C1CCC2CC2CC1` (single isomer, unassigned) [Compound 175] was run?
A: 100 to 1000 nM

Q: With `CC(C)n1nncc1C(=O)N[C@H](c1cn2nc(CC3C[C@@H](C(F)(F)F)CNC3=O)ccc2n1)C1CCC(F)(F)CC1` (stereo partly drawn) [Compound 107, N-((1S)-(4,4-difluorocyclohexyl)(6-(((5R)-2-oxo-5-(trifluoromethyl)piperidin-3-yl)methyl)imidazo[1,2-b]pyridazin-2-yl)methyl)-1-isopropyl-1H-1,2,3-triazole-5-carboxamide] as the compound, how does the IC50 read?
A: 100 to 1000 nM

Q: Which IC50 does the source give for `Cc1nonc1C(=O)N[C@H](c1cn2nc(C[C@H]3C[C@@H](C(F)(F)F)NC3=O)ccc2n1)C1CCC(F)(F)CC1` [Compound 18, N—((S)-(4,4-difluorocyclohexyl)(6-(((3R,5S)-2-oxo-5-(trifluoromethyl)pyrrolidin-3-yl)methyl)imidazo[1,2-b]pyridazin-2-yl)methyl)-4-methyl-1,2,5-oxadiazole-3-carboxamide] here?
A: > 1000 nM

Q: Which IC50 does the source give for `CCn1nccc1C(=O)N[C@H](c1cn2nc(CC3CCCNC3=O)ccc2n1)C1CCC(F)(F)CC1` (single isomer, unassigned) [Compound 13, N-((1 S)-(4,4-difluorocyclohexyl)(6-((2-oxopiperidin-3-yl)methyl)imidazo[1,2-b]pyridazin-2-yl)methyl)-1-ethyl-1H-pyrazole-5-carboxamide] here?
A: 100 to 1000 nM

Q: For `O=C(N[C@H](c1cn2nc(CC3C[C@@H](C(F)(F)F)CNC3=O)ccc2n1)C1CCC(F)(F)CC1)c1ccnn1C1CC1` (stereo partly drawn) [Compound 137, 1-cyclopropyl-N-((1S)-(4,4-difluorocyclohexyl)(6-(((5R)-2-oxo-5-(trifluoromethyl)piperidin-3-yl)methyl)imidazo[1,2-b]pyridazin-2-yl)methyl)-1H-pyrazole-5-carboxamide], which IC50 is on record?
A: 100 to 1000 nM

Q: With `CCn1nccc1C(=O)NC(c1cn2nc(CC3CC(F)(F)CNC3=O)ccc2n1)C1CCC(C)CC1` (single isomer, unassigned) [Compound 27] as the compound, how does the IC50 read?
A: 100 to 1000 nM

Q: For `CCn1nccc1C(=O)N[C@H](c1cn2nc(CC3CC(F)(F)CNC3=O)ccc2n1)C1CCC(F)(F)CC1` (single isomer, unassigned) [Compound 24], which IC50 is on record?
A: > 1000 nM

Q: Which IC50 does the source give for `Cc1nonc1C(=O)N[C@H](c1cn2nc(C[C@H]3C[C@@H](C(F)(F)F)NC3=O)ccc2n1)C(C1CC1)C1CC1` [Compound 21, N—((S)-2,2-dicyclopropyl-1-(6-(((3R,5S)-2-oxo-5-(trifluoromethyl)pyrrolidin-3-yl)methyl)imidazo[1,2-b]pyridazin-2-yl)ethyl)-4-methyl-1,2,5-oxadiazole-3-carboxamide] here?
A: > 1000 nM

Q: With `CCn1nccc1C(=O)N[C@H](c1cn2nc(CC3C(=O)NCCC3C)ccc2n1)[C@H]1CC[C@H](C)CC1` (single isomer, unassigned) [Compound 52] as the compound, how does the IC50 read?
A: > 1000 nM

Q: `CCn1nccc1C(=O)N[C@H](c1cn2ncc(CC3C[C@@H](C(F)(F)F)NC3=O)cc2n1)C1CCC(F)(F)CC1` (single isomer, unassigned) [Compound 204] was tested. Which IC50 did it give?
A: < 100 nM

Q: How did the IC50 turn out when `O=C(N[C@H](c1cn2nc(CC3C[C@@H](C(F)(F)F)CNC3=O)ccc2n1)[C@H]1CCCC(F)(F)C1)c1nonc1C1CC1` (stereo partly drawn) [Compound 144, 4-cyclopropyl-N—((S)-((S)-3,3-difluorocyclohexyl)(6-(((5R)-2-oxo-5-(trifluoromethyl)piperidin-3-yl)methyl)imidazo[1,2-b]pyridazin-2-yl)methyl)-1,2,5-oxadiazole-3-carboxamide] was run?
A: < 100 nM

Q: `CC(C)c1nonc1C(=O)N[C@H](c1cn2nc(CC3C[C@@H](C(F)(F)F)CNC3=O)ccc2n1)C1CCC(F)(F)CC1` (stereo partly drawn) [Compound 117, N-((1S)-(4,4-difluorocyclohexyl)(6-(((5R)-2-oxo-5-(trifluoromethyl)piperidin-3-yl)methyl)imidazo[1,2-b]pyridazin-2-yl)methyl)-4-isopropyl-1,2,5-oxadiazole-3-carboxamide] was tested. Which IC50 did it give?
A: < 100 nM

Q: For `O=C(N[C@H](c1cn2nc(CC3C[C@@H](C(F)(F)F)CNC3=O)ccc2n1)C1CCC(F)(F)CC1)c1nonc1CC(F)(F)F` (stereo partly drawn) [Compound 116, N-((1S)-(4,4-difluorocyclohexyl)(6-(((5R)-2-oxo-5-(trifluoromethyl)piperidin-3-yl)methyl)imidazo[1,2-b]pyridazin-2-yl)methyl)-4-(2,2,2-trifluoroethyl)-1,2,5-oxadiazole-3-carboxamide], which IC50 is on record?
A: 100 to 1000 nM

Q: With `CC[C@@H](c1ccc(F)cc1)C(NC(=O)c1ccnn1CC)c1cn2nc(CC3CC(F)(F)CNC3=O)ccc2n1` (single isomer, unassigned) [Compound 31] as the compound, how does the IC50 read?
A: 100 to 1000 nM

Q: For `CCn1nccc1C(=O)N[C@H](c1cn2nc(CC3C[C@@H](C(F)(F)F)CNC3=O)c(C(C)OC)cc2n1)C1CCC(F)(F)CC1` (stereo partly drawn) [Compound 183, N-((1S)-(4,4-difluorocyclohexyl)(7-(1-methoxyethyl)-6-(((5R)-2-oxo-5-(trifluoromethyl)piperidin-3-yl)methyl)imidazo[1,2-b]pyridazin-2-yl)methyl)-1-ethyl-1H-pyrazole-5-carboxamide], which IC50 is on record?
A: < 100 nM

Q: With `CCn1nccc1C(=O)N[C@H](c1cn2nc(CC3C[C@@H](C(F)(F)F)NC3=O)ccc2n1)C1CCCCCC1` (single isomer, unassigned) [Compound 5] as the compound, how does the IC50 read?
A: < 100 nM

Q: For `CCn1nccc1C(=O)NC(c1cn2ncc(CC3CCC(C(F)(F)F)NC3=O)cc2n1)C1CCC(C)CC1` (single isomer, unassigned) [Compound 214], which IC50 is on record?
A: 100 to 1000 nM

Q: For `CC(C)n1nccc1C(=O)N[C@H](c1cn2nc(CC3C[C@@H](C(F)(F)F)CNC3=O)ccc2n1)[C@H]1CCCC(F)(F)C1` (stereo partly drawn) [Compound 148, N-((1S)—((S)-3,3-difluorocyclohexyl)(6-(((5R)-2-oxo-5-(trifluoromethyl)piperidin-3-yl)methyl)imidazo[1,2-b]pyridazin-2-yl)methyl)-1-isopropyl-1H-pyrazole-5-carboxamide], which IC50 is on record?
A: < 100 nM

Q: For `CCn1nccc1C(=O)NC(c1cn2nc(CC3CC(C)CNC3=O)ccc2n1)C1CCC(C)CC1` (single isomer, unassigned) [Compound 50], which IC50 is on record?
A: > 1000 nM

Q: Which IC50 does the source give for `CCn1nccc1C(=O)N[C@H](c1cn2nc(C[C@@H]3CCCNC3=O)ccc2n1)C(C1CC1)C1CC1` (single isomer, unassigned) [Compound 33] here?
A: 100 to 1000 nM

Q: For `CCn1nccc1C(=O)N[C@H](c1cn2nc(CC3CC(F)(F)CNC3=O)c(C)cc2n1)C1CCC(F)(F)CC1` (single isomer, unassigned) [Compound 76], which IC50 is on record?
A: 100 to 1000 nM

Q: For `CCn1nccc1C(=O)N[C@H](c1cn2nc(CC3CC(F)(F)CNC3=O)c(OC)cc2n1)C1CCC(F)(F)CC1` (stereo partly drawn) [Compound 75, N-((1S)-(6-((5,5-difluoro-2-oxopiperidin-3-yl)methyl)-7-methoxyimidazo[1,2-b]pyridazin-2-yl)(4,4-difluorocyclohexyl)methyl)-1-ethyl-1H-pyrazole-5-carboxamide], which IC50 is on record?
A: > 1000 nM

Q: Which IC50 does the source give for `C[C@H]1CC[C@H]([C@H](NC(=O)c2ccnn2CCO)c2cn3nc(CC4C[C@@H](C(F)(F)F)CNC4=O)ccc3n2)CC1` (stereo partly drawn) [Compound 167, 1-(2-hydroxyethyl)-N—((S)-((1R.4S)-4-methylcyclohexyl)(6-(((3R.5R)-2-oxo-5-(trifluoromethyl)piperidin-3-yl)methyl)imidazo[1,2-b]pyridazin-2-yl)methyl)-1H-pyrazole-5-carboxamide] here?
A: 100 to 1000 nM
